According to US11999746B2, “Compounds” (GlaxoSmithKline Intellectual Property Development Limited, priority 2014, dated 2024):

Each compound was assayed against T1, Lp-PLA2 in human plasma (Homo sapiens, UniProt Q13093) (assay: (3a) Lp-PLA2 human plasma Thio-PAF assay). Settings: (3a) Thio-PAF assay, pooled human plasma; Examples 1-265 and 413-430 were tested here; read-out: pIC50 in the Lp-PLA2 human plasma assay (converted).
T1 construct: from tissue; host or cells: pooled human plasma
T1 sequence (Q13093 22-441): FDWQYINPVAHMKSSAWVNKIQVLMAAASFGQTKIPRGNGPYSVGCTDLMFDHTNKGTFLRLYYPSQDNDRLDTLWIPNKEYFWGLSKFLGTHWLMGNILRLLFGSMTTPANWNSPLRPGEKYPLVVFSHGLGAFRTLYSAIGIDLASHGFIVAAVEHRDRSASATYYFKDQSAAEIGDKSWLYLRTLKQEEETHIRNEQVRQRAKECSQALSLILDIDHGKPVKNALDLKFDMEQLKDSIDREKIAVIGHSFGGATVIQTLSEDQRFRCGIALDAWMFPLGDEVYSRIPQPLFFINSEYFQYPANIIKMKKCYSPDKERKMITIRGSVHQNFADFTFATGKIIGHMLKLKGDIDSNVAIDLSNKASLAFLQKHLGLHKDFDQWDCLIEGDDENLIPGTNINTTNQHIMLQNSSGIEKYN
Assay type: biochemical
Source text: (3) Lipoprotein-Associated Phospholipase A2 (Lp-PLA2) Human Plasma Assay
The human plasma assay utilizes a thioester analog of PAF (phosphatidylcholine), where hydrolysis yields to the formation of a phospholipid containing a free thiol group. The amount of thiol is quantitated continuously by reacting with CPM (7-diethylamino-3-(4′-maleimidylphenyl)-4-methylcoumarin), a maleimide which increases in fluoresence after Michael addition of thiols. This assay may detect the activity of Lp-PLA2 in human plasma, as determined by specific inhibition by Lp-PLA2 inhibitors.
The thio-PAF assay was run as a quenched 15 μL assay. Compounds source plate was prepared by making 1:3 (by volume) serial dilution of the compounds into pure DMSO on 384-well microplate. 0.01 μL of compounds on compound source plate were transferred to 384 well Greiner 784076 (black) low-volume plates by ECHO liquid dispenser. 8 μL pooled human plasma, which was previously aliquoted and frozen, was added. Plates were centrifuged for 10 sec at 500 rpm. After 30 minutes preincubation, 2 μL of substrate solution comprising 2.5 mM 2-thio-PAF [from ethanol stock], 32 μM CPM [from a DMSO stock] and 3.2 mM NEM (N-ethylmaleimide) [made fresh daily in DMSO] in assay buffer of 50 mM HEPES, pH 7.4, 150 mM NaCl, 1 mM CHAPS was added to 384 well Greiner 784076 (black) low-volume plates by BRAVO liquid handling station. After 2 mins, reaction was quenched with 5 μL of 5% aqueous trifluoroacetic acid (TFA). Plates were covered to protect from light and incubated for 40 min at room temperature. Plates were read at ex: 380/em: 485 using Envision microplate reader. PIC50 data, curve and QC analysis were conducted by using XLFit module in Excel.

IC50, ≤ 10 µM:
O=c1nc(OCc2cc(F)cc(F)c2)cc2n1C[C@@H]1COCN21 [Example E176, (R)-6-((3,5-difluorobenzyl)oxy)-10,10a-dihydro-1H-oxazolo[3′,4′:3,4]imidazo[1,2-c] pyrimidin-8(3H)-one]
O=c1nc(NCc2ccc(F)cc2F)cc2n1C[C@H]1CCCN21 [Example E216, (R)-3-((2,4-difluorobenzyl)amino)-7,8,8a,9-tetrahydropyrrolo[1,2′:3,4]imidazo[1,2-c] pyrimidin-1(6H)-one]
O=c1nc(OCc2cc(F)c(OC3(CCF)CC3)c(F)c2)cc2n1C[C@@H]1COCN21 [Example E193, (R)-6-((3,5-difluoro-4-(1-(2-fluoroethyl)cyclopropoxy)benzyl)oxy)-10,10a-dihydro-1H-oxazolo[3′,4′:3,4]imidazo[1,2-c]pyrimidin-8(3H)-one]
N#Cc1ccc(CCOc2cc3n(c(=O)n2)C[C@H]2COCN32)cc1 [Example E191, (S)-4-(2-((8-oxo-3,8,10,10a-tetrahydro-1H-oxazolo[3′,4′:3,4]imidazo[1,2-c]pyrimidin-6-yl)oxy)ethyl)benzonitrile]
O=c1nc(OCc2ccc(F)cc2F)cc2n1C[C@H]1COCN21 [Example E168, (S)-6-((2,4-difluorobenzyl)oxy)-10,10a-dihydro-1H-oxazolo[3′,4′:3,4]imidazo[1,2-c] pyrimidin-8(3H)-one]
O=c1nc(OCc2cc(F)c(OC3(CCF)CC3)c(F)c2)cc2n1C[C@@H]1COCCN21 [Example E258, (R)-7-((3,5-difluoro-4-(1-(2-fluoroethyl)cyclopropoxy)benzyl)oxy)-3,4,11,11a-tetrahydropyrimido[6′,1′:2,3]imidazo[5,1-c][1,4]oxazin-9(1H)-one]
N#Cc1ccc(CCOc2cc3n(c(=O)n2)C[C@H]2CCCN32)cc1 [Example E254, (R)-4-(2-((1-oxo-1,6,7,8,8a,9-hexahydropyrrolo[1′,2′:3,4]imidazo[1,2-c]pyrimidin-3-yl)oxy)ethyl)benzonitrile]
O=c1nc(OCc2cc(F)c(F)cc2F)cc2n1C[C@H]1COCCN21 [Example E220, (S)-7-((2,4,5-trifluorobenzyl)oxy)-3,4,11,11a-tetrahydropyrimido[6′,1′:2,3]imidazo[5,1-c] [1,4]oxazin-9(1H)-one]
O=c1nc(CCc2cccc(F)c2)cc2n1C[C@H]1COCCN21 [Example E257, (S)-7-(3-fluorophenethyl)-3,4,11,11a-tetrahydropyrimido[6′,1′:2,3]imidazo[5,1-c][1,4] oxazin-9(1H)-one]
O=c1nc(OCc2cccc(F)c2F)cc2n1C[C@H]1COCN21 [Example E169, (S)-6-((2,3-difluorobenzyl)oxy)-10,10a-dihydro-1H-oxazolo[3′,4′:3,4]imidazo[1,2-c]pyrimidin-8(3H)-one]
O=c1nc(OCc2cc(F)c(F)cc2F)cc2n1C[C@H]1CCCCN21 [Example E225, (R)-3-((2,4,5-trifluorobenzyl)oxy)-6,7,8,9,9a,10-hexahydro-1H-pyrido[1′,2′:3,4]imidazo[1,2-c]pyrimidin-1-one]
O=c1nc(OCc2ccc(F)cc2F)cc2n1C[C@H]1CCOCN21 [Example E177, (R)-3-((2,4-difluorobenzyl)oxy)-8,9,9a,10-tetrahydropyrimido[6′,1′:2,3]imidazo[1,5-c][1,3] oxazin-1(6H)-one]
O=c1nc(OCc2cc(F)c(OC3CCC(F)(F)CC3)c(F)c2)cc2n1C[C@@H]1CCCN21 [Example E206, (S)-3-((4-((4,4-difluorocyclohexyl)oxy)-3,5-difluorobenzyl)oxy)-7,8,8a,9-tetrahydropyrrolo[1′,2′:3,4]imidazo[1,2-c]pyrimidin-1(6H)-one]
Cn1cc(Oc2c(F)cc(COc3cc4n(c(=O)n3)CC3OCCN43)cc2F)cn1 (single isomer, unassigned) [Example E189, 6-((3,5-difluoro-4-((1-methyl-1H-pyrazol-4-yl)oxy)benzyl)oxy)-10,10a-dihydro-2H-oxazolo[3′,2′:3,4]imidazo[1,2-c]pyrimidin-8(3H)-one]
Cn1cc(Oc2c(F)cc(COc3cc4n(c(=O)n3)CC3OCCCN43)cc2F)cn1 (centres unmarked) [Example E200, 7-((3,5-Difluoro-4-((1-methyl-1H-pyrazol-4-yl)oxy)benzyl)oxy)-3,4,11,11a tetrahydropyrimido[6′,1′:2,3]imidazo[5,1-b][1,3]oxazin-9(2H)-one]
O=c1nc(OCc2cccc(F)c2F)cc2n1C[C@@H]1CCCN21 [Example E212, (S)-3-((2,3-difluorobenzyl)oxy)-7,8,8a,9-tetrahydropyrrolo[1′,2′:3,4]imidazo[1,2-c]pyrimidin-1(6H)-one]
O=c1nc(OCc2cc(F)c(OC3(CCF)CC3)c(F)c2)cc2n1C[C@H]1COCN21 [Example E197, (S)-6-((3,5-difluoro-4-(1-(2-fluoroethyl)cyclopropoxy)benzyl)oxy)-10,10a-dihydro-1H-oxazolo[3′,4′:3,4]imidazo[1,2-c]pyrimidin-8(3H)-one]
O=c1nc(OCc2ccc(F)cc2F)cc2n1C[C@@H]1COCN21 [Example E174, (R)-6-((2,4-difluorobenzyl)oxy)-10,10a-dihydro-1H-oxazolo[3′,4′:3,4]imidazo[1,2-c]pyrimidin-8(3H)-one]
O=c1nc(OCCc2cccc(F)c2)cc2n1C[C@H]1COCCN21 [Example E248, (S)-7-(3-fluorophenethoxy)-3,4,11,11a-tetrahydropyrimido[6′,1′:2,3]imidazo[5,1-c][1,4] oxazin-9(1H)-one]
N#Cc1ccc(CCOc2cc3n(c(=O)n2)C[C@H]2COCCN32)cc1 [Example E255, (S)-4-(2-((9-oxo-1,3,4,9,11,11a-hexahydropyrimido[6′,1′:2,3]imidazo[5,1-c][1,4]oxazin-7-yl)oxy)ethyl)benzonitrile]
O=c1nc(OCc2cc(F)c(OC3(CCF)CC3)c(F)c2)cc2n1C[C@H]1COCCN21 [Example E262, (S)-7-((3,5-difluoro-4-(1-(2-fluoroethyl)cyclopropoxy)benzyl)oxy)-3,4,11,11a-tetrahydropyrimido[6′,1′:2,3]imidazo[5,1-c][1,4]oxazin-9(1H)-one]
O=c1nc(OCc2cc(F)c(OC3(CCF)CC3)c(F)c2)cc2n1C[C@H]1CCOCN21 [Example E195, (R)-3-((3,5-difluoro-4-(1-(2-fluoroethyl)cyclopropoxy)benzyl)oxy)-8,9,9a,10-tetrahydropyrimido[6′,1′:2,3]imidazo[1,5-c][1,3]oxazin-1(6H)-one]
O=c1nc(OCc2cc(F)c(F)cc2F)cc2n1C[C@@H]1CCOCN21 [Example E181, (S)-3-((2,4,5-trifluorobenzyl)oxy)-8,9,9a,10-tetrahydropyrimido[6′,1′:2,3]imidazo[1,5-c][1,3]oxazin-1(6H)-one]
O=c1nc(OCc2cc(F)c(F)cc2F)cc2n1C[C@H]1CCCN21 [Example E218, (R)-3-((2,4,5-trifluorobenzyl)oxy)-7,8,8a,9-tetrahydropyrrolo[1′,2′:3,4]imidazo[1,2-c]pyrimidin-1(6H)-one]
O=c1nc(OCc2cccc(F)c2F)cc2n1CC1OCCN21 (centres unmarked) [Example E187, 6-((2,3-Difluorobenzyl)oxy)-10,10a-dihydro-2H-oxazolo[3′,2′:3,4]imidazo[1,2-c]pyrimidin-8(3H)-one]
O=c1nc(CCc2cccc(F)c2)cc2n1C[C@@H]1COCCN21 [Example E256, (R)-7-(3-fluorophenethyl)-3,4,11,11a-tetrahydropyrimido[6′,1′:2,3]imidazo[5,1-c][1,4]oxazin-9(1H)-one]
